Key:
[1] = biological target: T1, Prostaglandin G/H synthase 2 (Homo sapiens, UniProt P35354); assay: In vitro inhibitory concentration against Prostaglandin G/H synthase 2 (COX-2)
T1 sequence (P35354 whole entry): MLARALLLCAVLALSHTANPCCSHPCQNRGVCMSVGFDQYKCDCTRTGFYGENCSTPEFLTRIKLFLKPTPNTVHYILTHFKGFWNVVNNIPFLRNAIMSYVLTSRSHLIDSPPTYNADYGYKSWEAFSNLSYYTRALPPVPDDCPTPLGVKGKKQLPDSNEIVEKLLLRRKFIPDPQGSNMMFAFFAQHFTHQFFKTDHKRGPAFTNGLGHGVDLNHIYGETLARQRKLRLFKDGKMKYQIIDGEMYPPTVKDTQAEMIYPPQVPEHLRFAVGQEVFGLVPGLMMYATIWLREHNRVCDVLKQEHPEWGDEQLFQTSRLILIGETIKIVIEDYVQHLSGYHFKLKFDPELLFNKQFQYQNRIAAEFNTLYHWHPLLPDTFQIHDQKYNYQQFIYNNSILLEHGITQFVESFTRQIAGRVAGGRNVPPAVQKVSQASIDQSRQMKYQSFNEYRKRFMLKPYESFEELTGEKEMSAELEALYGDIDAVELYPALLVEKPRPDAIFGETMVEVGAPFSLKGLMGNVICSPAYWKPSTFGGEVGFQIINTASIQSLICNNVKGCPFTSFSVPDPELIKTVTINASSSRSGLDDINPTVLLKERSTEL

[2] = Ratio of inhibitory concentration against prostaglandin G/H synthase 1 to that of prostaglandin G/H synthase 2
[3] = In vitro inhibitory concentration against Prostaglandin G/H synthase 1 (COX-1)

SMILES	IC50 [1] [nM]	Ratio [2]	Log IC50 [3]
Cc1ccc2c(c1F)CSc1c(C(F)(F)F)nn(-c3ccc(S(N)(=O)=O)cc3)c1-2	15.8	2.84	-4.95
NS(=O)(=O)c1ccc(-n2nc(C(F)(F)F)c3c2-c2ccccc2SC3)cc1	–	–	-5.01
COc1ccc2c(c1F)CSc1c(C(F)(F)F)nn(-c3ccc(S(N)(=O)=O)cc3)c1-2	8.91	2.48	-5.56
NS(=O)(=O)c1ccc(-n2nc(C(F)(F)F)c3c2-c2ccc(F)cc2CS3)cc1	–	0.84	-6.57
COc1ccc2c(c1F)CSc1c(C(F)F)nn(-c3ccc(S(N)(=O)=O)cc3)c1-2	32.4	–	–
NS(=O)(=O)c1ccc(-n2nc(C(F)(F)F)c3c2-c2cccc(F)c2CS3)cc1	20.9	2.47	-5.2
NS(=O)(=O)c1ccc(-n2nc(C(F)(F)F)c3c2-c2ccccc2OC3)cc1	–	0.72	-5.15
NS(=O)(=O)c1ccc(-n2nc(C(F)(F)F)c3c2-c2ccc(F)c(F)c2CS3)cc1	6.03	2.58	-5.57

More lines, now with the values ahead:

IC50 [1] [nM]	Ratio [2]	Log IC50 [3]	SMILES
75.9	–	–	COc1ccc2c(c1F)CSc1c(C(F)(F)F)nn(-c3ccc(S(C)(=O)=O)cc3)c1-2
–	0.7	-6.12	N#Cc1nn(-c2ccc(S(N)(=O)=O)cc2)c2c1SCc1cc(F)ccc1-2
–	1.36	-6.52	COc1ccc2c(c1)CSc1c(C(F)(F)F)nn(-c3ccc(S(N)(=O)=O)cc3)c1-2
–	1.3	-6.4	NS(=O)(=O)c1ccc(-n2nc(C(F)(F)F)c3c2-c2ccccc2CS3)cc1
–	1.56	-6.1	Cc1ccc2c(c1)CSc1c(C(F)(F)F)nn(-c3ccc(S(N)(=O)=O)cc3)c1-2
1510	–	–	COc1ccc2c(c1F)C[S+]([O-])c1c(C(F)(F)F)nn(-c3ccc(S(N)(=O)=O)cc3)c1-2 (stereo not drawn)
